According to patent US10738056B2 (Aduro BioTech, Inc., priority 2017, dated 2020):

Biological target: Human cGAS amino acids 155-522 (Homo sapiens (Human), UniProt Q8N884)
Assay: cGAS biochemical activity assay (ATP remaining, Kinase-Glo Max luminescence)
Settings: human cGAS 155-522, ATP remaining (Kinase-Glo Max); read-out: cGAS IC50

Human cGAS amino acids 155-522, sequence (Q8N884 157-522): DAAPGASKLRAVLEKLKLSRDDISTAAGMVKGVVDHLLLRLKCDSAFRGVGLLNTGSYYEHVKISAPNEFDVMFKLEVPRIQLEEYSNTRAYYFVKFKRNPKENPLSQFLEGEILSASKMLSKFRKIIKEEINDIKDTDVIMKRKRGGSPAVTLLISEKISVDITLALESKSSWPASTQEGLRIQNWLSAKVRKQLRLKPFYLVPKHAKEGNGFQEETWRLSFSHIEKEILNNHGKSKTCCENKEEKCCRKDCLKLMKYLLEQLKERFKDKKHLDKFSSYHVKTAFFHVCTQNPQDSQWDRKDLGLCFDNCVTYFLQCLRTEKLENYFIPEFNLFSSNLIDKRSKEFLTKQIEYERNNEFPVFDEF

Row | IC50 [µM] | Compound
1 | 20 to 250 | COc1cccc2c1nc(-c1c(C)[nH]c3c(-c4ccccc4)c(C(F)(F)F)nn3c1=O)n2CC1CC1 [Compound C1189, 6-(1-(cyclopropylmethyl)-4-methoxy-1H-benzo[d]imidazol-2-yl)-5-methyl-3-phenyl-2-(trifluoromethyl)pyrazolo[1,5-a]pyrimidin-7(4H)-one]
2 | 20 to 250 | COc1cccc2oc(-c3c(C)[nH]c4c(-c5c(F)cccc5F)c(C(F)(F)F)nn4c3=O)nc12 [Compound C1133, 3-(2,6-difluorophenyl)-6-(4-methoxybenzo[d]oxazol-2-yl)-5-methyl-2-(trifluoromethyl)pyrazolo[1,5-a]pyrimidin-7(4H)-one]
3 | < 20 | Cc1[nH]c2c(-c3ccccc3)c(C#N)nn2c(=O)c1-c1nnc(C2CCCCC2)o1 [Compound D1089, 6-(5-cyclohexyl-1,3,4-oxadiazol-2-yl)-5-methyl-7-oxo-3-phenyl-4,7-dihydropyrazolo[1,5-a]pyrimidine-2-carbonitrile]
4 | 20 to 250 | COc1cccc2oc(-c3c(C(=O)N4CCC[C@@H]4CO)[nH]c4c(-c5ccccc5)c(C(F)(F)F)nn4c3=O)nc12 [Compound C1207, (R)-5-(2-(hydroxymethyl)pyrrolidine-1-carbonyl)-6-(4-methoxybenzo[d]oxazol-2-yl)-3-phenyl-2-(trifluoromethyl)pyrazolo[1,5-a]pyrimidin-7(4H)-one]
5 | < 20 | Cc1[nH]c2c(-c3ccccc3)c(C(F)(F)F)nn2c(=O)c1C(=O)Nc1cnccn1 [Compound A1024, 5-methyl-7-oxo-3-phenyl-N-(pyrazin-2-yl)-2-(trifluoromethyl)-4,7-dihydropyrazolo[1,5-a]pyrimidine-6-carboxamide]
6 | 20 to 250 | COc1c(F)cccc1NC(=O)c1c(C)[nH]c2c(-c3ccccc3)c(C(F)(F)F)nn2c1=O [Compound A1137, N-(3-fluoro-2-methoxyphenyl)-5-methyl-7-oxo-3-phenyl-2-(trifluoromethyl)-4,7-dihydropyrazolo[1,5-a]pyrimidine-6-carboxamide]
7 | 20 to 250 | Cc1[nH]c2c(-c3ccccc3)c(C(F)(F)F)nn2c(=O)c1Cc1nnc(C2CCCC2)o1 [Compound D1034, 6-((5-cyclopentyl-1,3,4-oxadiazol-2-yl)methyl)-5-methyl-3-phenyl-2-(trifluoromethyl)pyrazolo[1,5-a]pyrimidin-7(4H)-one]
8 | > 250 | Cc1[nH]c2c(C3CC3)c(C(F)(F)F)nn2c(=O)c1-c1ccccc1 [Compound C1265, 3-cyclopropyl-5-methyl-6-phenyl-2-(trifluoromethyl)pyrazolo[1,5-a]pyrimidin-7(4H)-one]
9 | 20 to 250 | COc1ccc(-c2nnc(Cc3c(C)[nH]c4c(-c5ccccc5)c(C(F)(F)F)nn4c3=O)o2)cc1 [Compound D1033, 6-((5-(4-methoxyphenyl)-1,3,4-oxadiazol-2-yl)methyl)-5-methyl-3-phenyl-2-(trifluoromethyl)pyrazolo[1,5-a]pyrimidin-7(4H)-one]
10 | 20 to 250 | Cc1[nH]c2c(-c3ccccc3)c(C(F)(F)F)nn2c(=O)c1C(=O)Nc1ccccc1OC(C)C [Compound A1060, N-(2-isopropoxyphenyl)-5-methyl-7-oxo-3-phenyl-2-(trifluoromethyl)-4,7-dihydropyrazolo[1,5-a]pyrimidine-6-carboxamide]
11 | 20 to 250 | COc1cc(F)c(F)cc1NC(=O)c1c(C)[nH]c2c(-c3ccccc3)c(C(F)(F)F)nn2c1=O [Compound A1080, N-(4,5-difluoro-2-methoxyphenyl)-5-methyl-7-oxo-3-phenyl-2-(trifluoromethyl)-4,7-dihydropyrazolo[1,5-a]pyrimidine-6-carboxamide]
12 | 20 to 250 | Cc1[nH]c2c(-c3ccccc3)c(C(F)(F)F)nn2c(=O)c1CC(=O)Nc1cccnc1 [Compound B1008, 2-(5-methyl-7-oxo-3-phenyl-2-(trifluoromethyl)-4,7-dihydropyrazolo[1,5-a]pyrimidin-6-yl)-N-(pyridin-3-yl)acetamide]
13 | > 250 | Cc1[nH]c2c(-c3ccccc3)c(C(F)(F)F)nn2c(=O)c1-c1nc2cc(Cl)ccc2o1 [Compound C1028, 6-(5-chlorobenzo[d]oxazol-2-yl)-5-methyl-3-phenyl-2-(trifluoromethyl)pyrazolo[1,5-a]pyrimidin-7(4H)-one]
14 | 20 to 250 | COc1ccnc(-c2nnc(-c3c(C)[nH]c4c(-c5ccccc5)c(C(F)(F)F)nn4c3=O)o2)n1 [Compound D1076, 6-(5-(4-methoxypyrimidin-2-yl)-1,3,4-oxadiazol-2-yl)-5-methyl-3-phenyl-2-(trifluoromethyl)pyrazolo[1,5-a]pyrimidin-7(4H)-one]
15 | 20 to 250 | COc1cccc2oc(-c3c(COCC(N)=O)[nH]c4c(-c5ccccc5)c(C(F)(F)F)nn4c3=O)nc12 [Compound C1198, 2-((6-(4-methoxybenzo[d]oxazol-2-yl)-7-oxo-3-phenyl-2-(trifluoromethyl)-4,7-dihydropyrazolo[1,5-a]pyrimidin-5-yl)methoxy)acetamide]
16 | 20 to 250 | Cc1[nH]c2c(-c3ccccc3)c(C(F)(F)F)nn2c(=O)c1-c1nnc(N)o1 [Compound D1075, 6-(5-amino-1,3,4-oxadiazol-2-yl)-5-methyl-3-phenyl-2-(trifluoromethyl)pyrazolo[1,5-a]pyrimidin-7(4H)-one]
17 | < 20 | COc1cccc2oc(-c3c(COC4CCN(C)C4=O)[nH]c4c(-c5ccccc5)c(C(F)(F)F)nn4c3=O)nc12 (stereo not shown) [Compound C1225, 6-(4-methoxybenzo[d]oxazol-2-yl)-5-(((1-methyl-2-oxopyrrolidin-3-yl)oxy)methyl)-3-phenyl-2-(trifluoromethyl)pyrazolo[1,5-a]pyrimidin-7(4H)-one]
18 | 20 to 250 | COc1cccn2c(CO)c(-c3c(C)[nH]c4c(-c5ccccc5)c(C(F)(F)F)nn4c3=O)nc12 [Compound C1215, 6-(3-(hydroxymethyl)-8-methoxyimidazo[1,2-a]pyridin-2-yl)-5-methyl-3-phenyl-2-(trifluoromethyl)pyrazolo[1,5-a]pyrimidin-7(4H)-one]
19 | 20 to 250 | Cc1[nH]c2c(-c3ccccc3)c(C(F)(F)F)nn2c(=O)c1C(=O)Nc1[nH]nc(C(F)(F)F)c1C1CCCC1 [Compound A1061, N-(4-cyclopentyl-3-(trifluoromethyl)-1H-pyrazol-5-yl)-5-methyl-7-oxo-3-phenyl-2-(trifluoromethyl)-4,7-dihydropyrazolo[1,5-a]pyrimidine-6-carboxamide]
20 | < 20 | COc1cccc2oc(-c3c(C)[nH]c4c(-c5ccccc5)nnn4c3=O)nc12 [Compound E1001, 6-(4-methoxybenzo[d]oxazol-2-yl)-5-methyl-3-phenyl-[1,2,3]triazolo[1,5-a]pyrimidin-7(4H)-one]
21 | > 250 | COc1cccc2oc(-c3c(OCCN(C)C)[nH]c4c(-c5ccccc5)c(C(F)(F)F)nn4c3=O)nc12 [Compound C1067, 5-(2-(dimethylamino)ethoxy)-6-(4-methoxybenzo[d]oxazol-2-yl)-3-phenyl-2-(trifluoromethyl)pyrazolo[1,5-a]pyrimidin-7(4H)-one]
22 | 20 to 250 | Cc1[nH]c2c(-c3ccccc3)c(C(F)(F)F)nn2c(=O)c1-c1nnc(C2COCCN2C(=O)OCc2ccccc2)o1 (stereo not shown) [Compound D1039, benzyl 3-(5-(5-methyl-7-oxo-3-phenyl-2-(trifluoromethyl)-4,7-dihydropyrazolo[1,5-a]pyrimidin-6-yl)-1,3,4-oxadiazol-2-yl)morpholine-4-carboxylate]
